Reference: PMC4057759, “Biological Evaluation and 3D-QSAR Studies of Curcumin Analogues as Aldehyde Dehydrogenase 1 Inhibitors” (International Journal of Molecular Sciences, 2014)
Read-outs that look alike come from different tables or passages of the source.

Tests used:
baker's yeast ALDH1 = target: T1, baker's yeast ALDH1 (Saccharomyces cerevisiae, UniProt P46367); assay: In vitro ALDH1 inhibitory assay (propanal oxidation, NAD, OD 340 nm); type: biochemical; settings: for inhibitory activity on ALDH1 (in words): in vitro
T1 construct: purchased Sigma (St. Louis, MO, USA)
T1 sequence (P46367 25-519): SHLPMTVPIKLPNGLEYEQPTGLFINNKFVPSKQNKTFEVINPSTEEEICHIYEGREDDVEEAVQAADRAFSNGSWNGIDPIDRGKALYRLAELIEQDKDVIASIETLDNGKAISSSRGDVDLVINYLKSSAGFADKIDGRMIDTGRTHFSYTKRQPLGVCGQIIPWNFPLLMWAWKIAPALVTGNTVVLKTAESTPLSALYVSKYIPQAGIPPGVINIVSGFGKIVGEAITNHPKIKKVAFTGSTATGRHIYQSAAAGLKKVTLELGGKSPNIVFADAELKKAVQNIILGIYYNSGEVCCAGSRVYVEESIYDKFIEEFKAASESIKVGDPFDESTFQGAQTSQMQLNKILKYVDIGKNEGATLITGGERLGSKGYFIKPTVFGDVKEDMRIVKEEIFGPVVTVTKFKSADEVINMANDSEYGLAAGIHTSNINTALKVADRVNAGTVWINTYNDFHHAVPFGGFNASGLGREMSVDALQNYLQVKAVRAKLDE
Procedure: (§1) In vitro ALDH1 inhibitory assay was performed as follows. To a reaction mixture containing 1 mM EDTA, 100 mM KCl, 2 mM NAD, 0.1 M sodium phosphate buffer pH 7.4, 1 U/mg baker’s yeast ALDH1 was added by Multifunction microplatereader (Tecan Infinite 200, TECAN Austria GmbH, Männedorf, Switzerland). The reaction was started by the addition of 1 mM propanal in final volume of 300 μL and the optical density (OD) was read at 340 nm at 0 min (just after the addition of the substrate) and reacted for 5 min. The enzyme activity is expressed as OD/min at 25 °C at the pH 7.4. Results are the average of three experiments done in duplicate. […] The IC50 values in units of μM were transformed in pIC50 (–log IC50). The data was randomly divided into training set (26 samples) and test set (4 samples * carry out external validation).

ALDH1 = target: T2, ALDH1 (Saccharomyces cerevisiae, UniProt P46367); assay: Kinetic analysis of inhibition of ALDH1 (Lineweaver-Burk plots, propanal); type: biochemical, baker's yeast; settings: double-reciprocal plots, oxidation of propanal
T2 construct: purchased Sigma (St. Louis, MO, USA)
T2 sequence (P46367 25-519): T1 sequence (P46367 25-519)
Procedure: as §1, with “Figure 1. […] In vitro” for “In vitro”

Solubility (remark) = type: physicochemical
[1] = 1 mM propanal, 2 mM NAD, pH 7.4, 25 °C, read-out: IC50
[2] = Table 1, –log IC50, read-out: pIC50 (converted)
[3] = Table 3, experimental activity, read-out: Actual pIC50 (converted)

IC50 (baker's yeast ALDH1; [1]) [µM]	IC50 (baker's yeast ALDH1; [3]) [µM]	Compound	further results
36.9	–	COc1cc(/C=C/C(=O)CC(=O)/C=C/c2ccc(O)c(OC)c2)ccc1O [Curcumin]	–
3.41	–	O=C1/C(=C/c2ccc(O)c(O)c2)CC/C1=C\c1ccc(O)c(O)c1 [Compound 6]	inhibition type (ALDH1): mixed-competitive inhibition type; IC50 (baker's yeast ALDH1; [2]): 3.47 µM; inhibitory activity on ALDH1 (in words) (baker's yeast ALDH1): high inhibitory activity; activity relative to curcumin (baker's yeast ALDH1; ratio of IC50 values): over 10 times
69.4	69.2	CN(C)c1ccc(/C=C2\CSC/C(=C\c3ccc(N(C)C)cc3)C2=O)cc1 [Compound 23]	–
23.6	23.4	O=C(/C=C/c1ccc(O)c(O)c1)/C=C/c1ccc(O)c(O)c1 [Compound 5]	–
63.1	63.1	COc1cc(/C=C2\CSC/C(=C\c3cc(OC)c(OC)c(OC)c3)C2=O)cc(OC)c1OC [Compound 21]	–
10.6	10.7	O=C1/C(=C/c2ccncc2)CSC/C1=C\c1ccncc1 [Compound 26]	–
7.9	7.94	O=C1/C(=C/c2ccc(O)c(O)c2)COC/C1=C\c1ccc(O)c(O)c1 [Compound 8]	inhibitory activity on ALDH1 (in words) (baker's yeast ALDH1): high inhibitory activity
17.7	17.8	O=C1/C(=C/c2cc(Br)c(O)c(Br)c2)CSC/C1=C\c1cc(Br)c(O)c(Br)c1 [Compound 20]	–
53.2	53.7	COc1cc(/C=C2\COC/C(=C\c3cc(F)c(O)c(OC)c3)C2=O)cc(F)c1O [Compound 16]	–
16.6	16.6	COc1cc(/C=C2\COC/C(=C\c3cc(OC)c(O)c(OC)c3)C2=O)cc(OC)c1O [Compound 15]	–
39.4	39.8	O=C1/C(=C/c2ccc(O)c(O)c2)CNC/C1=C\c1ccc(O)c(O)c1 [Compound 4]	–
31.3	31.6	COc1cc(/C=C2\CSC/C(=C\c3ccc(O)c(OC)c3)C2=O)ccc1O [Compound 14]	–
–	–	O=C1/C(=C/c2ccc(O)c(O)c2)CCC/C1=C\c1ccc(O)c(O)c1 [Compound 7]	IC50 (baker's yeast ALDH1; Actual pIC50, Table 3, experimental activity): 6.31 µM; IC50 (baker's yeast ALDH1; IC50, 1 mM propanal, 2 mM NAD, pH 7.4, 25 °C): 6.5 µM; inhibitory activity on ALDH1 (in words) (baker's yeast ALDH1): high inhibitory activity; IC50 (baker's yeast ALDH1; pIC50, Table 1, –log IC50): 6.31 µM
17.5	17.4	O=C1/C(=C/c2cc(Br)c(O)c(Br)c2)CCC/C1=C\c1cc(Br)c(O)c(Br)c1 [Compound 18]	–
24.2	24	COc1cc(/C=C2\CC/C(=C\c3ccc(O)c(OC)c3)C2=O)ccc1O [Compound 13]	–
2.91	–	CCN(CC)C(=S)SSC(=S)N(CC)CC [Disufiram, disulfiram, reference compound]	–
73.5	74.1	CN(C)c1ccc(/C=C2\CCC/C(=C\c3ccc(N(C)C)cc3)C2=O)cc1 [Compound 22]	–
30	30.2	COc1cc(/C=C2\CNC/C(=C\c3cc(OC)c(O)c(OC)c3)C2=O)cc(OC)c1O [Compound 3]	–
18.4	18.2	O=C1/C(=C/c2ccccn2)CCC/C1=C\c1ccccn1 [Compound 30]	–
18.7	18.6	O=C1/C(=C/c2cc(Br)c(O)c(Br)c2)COC/C1=C\c1cc(Br)c(O)c(Br)c1 [Compound 19]	–
8.2	8.32	O=C1/C(=C/c2ccc(Br)cc2)CCC/C1=C\c1ccc(Br)cc1 [Compound 24]	inhibition type (ALDH1): mixed-competitive inhibition type; IC50 (baker's yeast ALDH1; [2]): 8.32 µM; inhibitory activity on ALDH1 (in words) (baker's yeast ALDH1): high inhibitory activity; solubility (Solubility (remark)): not good
–	13.8	O=C1/C(=C/c2ccccn2)CC/C1=C\c1ccccn1 [Compound 29]	IC50 (baker's yeast ALDH1; [2]): 13.8 µM
43.2	43.7	O=C1/C(=C/c2cc(O)cc(O)c2)CC/C1=C\c1cc(O)cc(O)c1 [Compound 12]	–
22.7	22.9	O=C1/C(=C/c2ccc(O)c(O)c2)CSC/C1=C\c1ccc(O)c(O)c1 [Compound 9]	–
39.7	38.9	O=C1/C(=C/c2ccc(O)cc2)COC/C1=C\c1ccc(O)cc1 [Compound 11]	IC50 (baker's yeast ALDH1; [2]): 38.9 µM
30.1	29.5	O=C1/C(=C/c2cccs2)CC/C1=C\c1cccs1 [Compound 25]	IC50 (baker's yeast ALDH1; [2]): 29.5 µM
54.2	63.1	O=C1/C(=C/c2ccc(O)cc2)CC/C1=C\c1ccc(O)cc1 [Compound 10]	–
25.8	25.7	O=C(/C=C/c1cc(Br)c(O)c(Br)c1)/C=C/c1cc(Br)c(O)c(Br)c1 [Compound 17]	–
